According to ChEMBL document CHEMBL5365457, “Selective HDAC3 Inhibitors with Potent In Vivo Antitumor Efficacy against Triple-Negative Breast Cancer” (J Med Chem, 2023):
Activity calls are given as the source filed them. The calls are words filed in the database; no cut-off is given here.

Legend:
Histone deacetylase 5 = Histone deacetylase 5 (Homo sapiens, UniProt Q9UQL6); assay: Inhibition of recombinant HDAC5 (unknown origin) incubated for 30 mins by fluorescence based microplate analysis
4T1 = assay: Antitumor activity against mouse 4T1 cells implanted in BALB/c mouse assessed as reduction in tumor growth at 5 to 15 mg/kg, ip administered 5 times a week for 21 days; assay type: functional, organism-based; settings: dose 5-15 mg/kg, time 21.0 day
Mus musculus = assay: Induction of ROS generation in mouse implanted with mouse 4T1 cells at 15 mg/kg, ip administered for 21 days by DCFH-DA staining based microscopic analysis; assay type: functional, organism-based; settings: time 21.0 day

Chain of Histone deacetylase 5 (Q9UQL6 whole entry): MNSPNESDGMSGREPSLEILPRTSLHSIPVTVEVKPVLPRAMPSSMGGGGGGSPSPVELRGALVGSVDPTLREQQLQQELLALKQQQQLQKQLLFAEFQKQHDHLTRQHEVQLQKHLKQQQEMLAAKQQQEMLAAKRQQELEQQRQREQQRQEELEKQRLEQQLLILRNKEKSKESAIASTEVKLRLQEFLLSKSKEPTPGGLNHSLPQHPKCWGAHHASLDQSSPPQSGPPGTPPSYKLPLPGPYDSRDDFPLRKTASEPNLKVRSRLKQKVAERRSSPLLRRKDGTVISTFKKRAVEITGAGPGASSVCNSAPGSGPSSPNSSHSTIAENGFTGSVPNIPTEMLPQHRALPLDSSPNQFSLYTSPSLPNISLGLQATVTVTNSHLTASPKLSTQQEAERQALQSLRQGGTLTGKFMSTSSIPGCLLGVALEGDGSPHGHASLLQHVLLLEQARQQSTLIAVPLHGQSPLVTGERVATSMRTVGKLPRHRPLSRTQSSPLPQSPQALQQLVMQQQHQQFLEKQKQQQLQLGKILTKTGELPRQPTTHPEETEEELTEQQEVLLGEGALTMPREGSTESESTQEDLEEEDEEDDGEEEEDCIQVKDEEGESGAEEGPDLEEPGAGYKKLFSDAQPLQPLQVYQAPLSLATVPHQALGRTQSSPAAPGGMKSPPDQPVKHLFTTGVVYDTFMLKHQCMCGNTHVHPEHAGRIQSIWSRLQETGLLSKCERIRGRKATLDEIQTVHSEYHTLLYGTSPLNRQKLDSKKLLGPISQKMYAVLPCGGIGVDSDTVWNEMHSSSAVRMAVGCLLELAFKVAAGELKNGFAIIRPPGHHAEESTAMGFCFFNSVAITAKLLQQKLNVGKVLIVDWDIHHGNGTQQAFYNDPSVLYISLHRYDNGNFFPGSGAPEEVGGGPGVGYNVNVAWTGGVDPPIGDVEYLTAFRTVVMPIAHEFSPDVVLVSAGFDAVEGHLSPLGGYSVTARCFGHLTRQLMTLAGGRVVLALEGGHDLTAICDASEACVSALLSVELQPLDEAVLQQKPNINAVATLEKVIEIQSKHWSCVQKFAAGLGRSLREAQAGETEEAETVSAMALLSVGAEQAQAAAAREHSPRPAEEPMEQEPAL

IC50 (Histone deacetylase 5): > 20 µM
Compound: CCCNNC(=O)c1cnc(NCc2ccc(OC)cc2)cn1
Activity (4T1): Active
Activity (Mus musculus): Active
